Publication PMC6694155, “PTPσ inhibitors promote hematopoietic stem cell regeneration” (Nature Communications, 2019)
“And” between values parts separate entries of the source, which are not always exact repeats. Equal values may be shown once. “Also recorded” adds a separate entry of the source.

Key:
[1] = target: T1, DUSP22 (Dual Specificity Phosphatase 22) (Homo sapiens, UniProt Q9NRW4); test: PhosphataseProfiler screen: DUSP22; type: biochemical; conditions: replicates
T1 construct: purchased Eurofins Pharma Discovery Services UK
T1 sequence (Q9NRW4 whole entry, species assumed): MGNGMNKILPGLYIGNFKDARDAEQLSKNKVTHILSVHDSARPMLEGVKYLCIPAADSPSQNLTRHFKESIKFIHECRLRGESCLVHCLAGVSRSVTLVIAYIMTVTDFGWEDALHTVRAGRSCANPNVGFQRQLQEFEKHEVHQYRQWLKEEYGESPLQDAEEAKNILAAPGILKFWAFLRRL
Description: (§1) Compound DJ001 was evaluated in a PhosphataseProfiler™ screen at 10 μM and 1 μM (2.7 μg/mL and 0.27 μg/mL) concentrations at Eurofins Pharma Discovery Services UK (Study number UK022-0004033) against a panel of 21 Phosphatases. In each experiment, the respective reference antagonist/agonist was tested directly with DJ001 and the data were compared with historical values determined at Eurofins. DJ001 compound inhibition was calculated as percentage inhibition of the enzymatic activity compared with control.

[2] = target: T2, PTPMEG2 (Protein Tyrosine Phosphatase Non-Receptor Type 9) (Homo sapiens, UniProt P43378); test: PhosphataseProfiler screen: PTPMEG2; type: biochemical; conditions: replicates
T2 construct: purchased Eurofins Pharma Discovery Services UK
T2 sequence (P43378 whole entry): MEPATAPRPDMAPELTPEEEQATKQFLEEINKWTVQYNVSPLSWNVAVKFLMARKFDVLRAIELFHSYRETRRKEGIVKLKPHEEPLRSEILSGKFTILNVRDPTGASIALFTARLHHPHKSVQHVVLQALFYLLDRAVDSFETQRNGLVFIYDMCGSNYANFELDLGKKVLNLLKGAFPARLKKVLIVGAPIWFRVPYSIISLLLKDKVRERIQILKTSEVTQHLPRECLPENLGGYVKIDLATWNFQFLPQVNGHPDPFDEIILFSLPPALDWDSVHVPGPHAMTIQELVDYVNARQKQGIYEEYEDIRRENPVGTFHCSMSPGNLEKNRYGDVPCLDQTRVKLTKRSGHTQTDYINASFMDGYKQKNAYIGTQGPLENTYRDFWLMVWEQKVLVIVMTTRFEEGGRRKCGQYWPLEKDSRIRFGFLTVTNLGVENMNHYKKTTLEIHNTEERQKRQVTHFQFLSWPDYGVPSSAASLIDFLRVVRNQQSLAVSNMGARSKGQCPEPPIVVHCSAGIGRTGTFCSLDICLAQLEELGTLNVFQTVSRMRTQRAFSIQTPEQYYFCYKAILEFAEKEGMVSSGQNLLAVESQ
Description: as §1

[3] = target: T3, TCPTP (T-Cell Protein-Tyrosine Phosphatase) (Homo sapiens, UniProt P17706); test: PhosphataseProfiler screen: TCPTP; type: biochemical; conditions: replicates
T3 construct: purchased Eurofins Pharma Discovery Services UK
T3 sequence (P17706 whole entry, species assumed): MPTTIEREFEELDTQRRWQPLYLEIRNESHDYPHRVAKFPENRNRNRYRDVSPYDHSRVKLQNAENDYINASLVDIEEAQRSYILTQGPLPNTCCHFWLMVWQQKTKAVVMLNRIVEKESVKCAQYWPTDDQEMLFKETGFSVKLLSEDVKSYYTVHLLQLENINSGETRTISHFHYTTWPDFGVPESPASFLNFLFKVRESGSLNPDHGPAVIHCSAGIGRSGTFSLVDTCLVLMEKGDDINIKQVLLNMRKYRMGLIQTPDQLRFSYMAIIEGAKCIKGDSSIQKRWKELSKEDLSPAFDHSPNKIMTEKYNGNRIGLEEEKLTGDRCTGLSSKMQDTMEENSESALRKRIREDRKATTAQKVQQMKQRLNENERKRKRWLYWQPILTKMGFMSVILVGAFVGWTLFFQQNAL
Description: as §1

BM KSL cells [4] = test: CFC assay, 3 day culture of non-irradiated BM KSL cells; type: cell-based, mouse; conditions: for Supplementary Figure 3b: BFU-E / Supplementary Figure 3b: CFU-GEMM / Supplementary Figure 3b: CFU-GM: non-irradiated BM KSL cells, replicates
Description: (§2) CFC assays (colony-forming unit-granulocyte monocyte), burst-forming unit-erythroid, and CFU-GEMM were performed using MethoCult GF M3434 (Stemcell Technologies)[6]. For all in vitro assays, BM CD34^−KSL cells, KSL cells, and Lin^− cells were cultured in TSF media (IMDM, 10% FBS, 1% pen-strep, 20 ng/mL recombinant mouse TPO, 125 ng/mL recombinant mouse SCF, 50 ng/mL recombinant mouse Flt3 ligand). Recombinant mouse SCF, Flt3 ligand, and TPO were purchased from R&D Systems. For competitive repopulation assays, BM cells were isolated from donor 10–12-week-old female CD45.2^+ mice. Recipient 10-week-old female CD45.1^+ B6.SJL mice were irradiated with 950 cGy TBI using a Cs137 irradiator and donor BM cells were administered via tail vein injection along with a competing dose of 1 × 10^5 non-irradiated host BM cells. Multilineage donor hematopoietic cell engraftment was measured in the PB by flow cytometry.

adult C57BL/6 mice = test: 30 day systemic treatment of non-irradiated mice (blood counts, BM HSC/progenitors, CFCs); type: in vivo, mouse
Description: Femurs and tibiae were collected from killed C57BL/6 or Ptprs^−/− mice and flushed with IMDM containing 10% FBS and 1% penicillin–streptomycin for BM cells. PB was collected through sub-mandibular puncture. Cells were filtered through a 40 μM strainer and then treated with ACK lysis buffer (Sigma Aldrich) before antibody staining for flow cytometry. For KSL and CD150^+CD48^−KSL cell analysis, BM cells were stained with allophycocyanin (APC)-and Cy7-conjugated anti-mouse Sca1 (BD Biosciences, #560654, 1:100), phycoerythrin (PE)-conjugated anti-mouse c-kit (BD Biosciences, #553355, 1:100), V450 lineage cocktail (BD Biosciences, 561301, 1:10), Alexa Fluor 488-conjugated anti-mouse CD48 (BioLegend, #103414, 1:100), and Alexa Fluor 647-conjugated anti-mouse CD150 (Biolegend, #115918, 1:100) antibodies. For MEP, CMP, GMP, and CLP cell analysis, BM cells were stained with APC-Cy7-conjugated anti-mouse Sca1 (BD Biosciences, #560654, 1:100), PE-conjugated anti-mouse ckit (BD Biosciences, #553355, 1:100), V450 lineage cocktail (BD Biosciences, #561301; 1:10), Alexa Fluor 488-conjugated anti-mouse CD127 (BD Biosciences, #561533, 1:100), Alexa Fluor 647-conjugated anti-mouse CD34 (BD Biosciences, #560230; 1:100), and BV605-conjugated anti-mouse CD16/32 antibodies (BD Biosciences, #563006; 1:100). For donor engraftment analysis in transplanted mice, PB or BM cells were stained with BV605-conjugated anti-mouse CD45.2 (BioLegend, #109841, 1:100), fluorescein isothiocyanate (FITC)-conjugated anti-mouse CD45.1 (BD Biosciences, #553775, 1:100), PE-conjugated anti-mouse Mac-1 (BD Biosciences, #557397, 1:100) and anti-mouse Gr1 (BD Biosciences, #553128, 1:100), V450-conjugated anti-mouse CD3 (BD Biosciences, #561389, 1:100), and APC-Cy7-conjugated anti-mouse B220 (BD Biosciences, 552094, 1:100) antibodies.
as §2

BM KSL cells [5] = test: Transendothelial migration assay; type: cell-based, mouse
Description: For the transendothelial migration assay,VeraVec^TM mouse spleen ECs (Angiocrine Biosciences) were cultured to confluence in […] pore transwells (Corning Incorporated). Transwells were then seeded with 50,000 sorted BM KSL cells in IMDM with 10% FBS, 1% pen-strep, 20 ng/mL TPO, 125 ng/mL SCF, and 50 ng/mL Flt3 ligand with or without 1 µg/mL of DJ001. SDF-1, 500 ng/mL (R&D Systems), was added to the bottom chamber of the transwell. At 18 h post incubation, cells in the bottom chamber were collected and cell counts were performed.

[6] = 30 day treatment of non-irradiated mice, individual mice
[7] = 30 day treatment of non-irradiated mice, replicates

In the case of `O=C(/C=C\Nc1cccc([N+](=O)[O-])c1)c1ccccc1` [DJ001, (Z)-3-((3-nitrophenyl)amino)-1-phenylprop-2-en-1-one], the “Supplementary Figure 1: DUSP22 activity” value ([1]; 0.27 μg/mL DJ001) is reported as 107 and 96 (2×), the “Supplementary Figure 1: DUSP22 activity” value ([1]; 2.7 μg/mL DJ001) is reported as 98 and 109 and 100 and the “Supplementary Figure 1: PTP MEG2 activity” value ([2]; 0.27 μg/mL DJ001) is reported as 94 (2×) and 103. For the same compound, the “Supplementary Figure 1: PTP MEG2 activity” value ([2]; 2.7 μg/mL DJ001) was 91 and 71 and 95, the “Supplementary Figure 1: TCPTP activity” value ([3]; 2.7 μg/mL DJ001) was 91 and 103 and 88 and the “Supplementary Figure 1: TCPTP activity” value ([3]; 0.27 g/mL DJ001) was 97 and 96 and 99. The “Supplementary Figure 3b: BFU-E” value (BM KSL cells [4]; 10 ng/mL) was 0 (4×) and 1 and 2, the “Supplementary Figure 3b: CFU-GEMM” value (BM KSL cells [4]; 10 ng/mL) was 2 and 4 (2×) and 7 (2×) and 3 and the “Supplementary Figure 3b: CFU-GM” value (BM KSL cells [4]; 10 ng/mL) was 21 and 22 and 19 and 15 (2×) and 18. The “Supplementary Figure 3b: BFU-E” value (BM KSL cells [4]; 100 ng/mL) was 1 (3×) and 3 and 2, the “Supplementary Figure 3b: CFU-GEMM” value (BM KSL cells [4]; 100 ng/mL) was 8 (2×) and 7 and 6 and 5 and the “Supplementary Figure 3b: CFU-GM” value (BM KSL cells [4]; 100 ng/mL) was 23 and 20 and 24 (2×) and 21. For the same compound, the “Supplementary Figure 3b: BFU-E” value (BM KSL cells [4]; 1000 ng/mL) was 3 and 2 (3×) and 1, the “Supplementary Figure 3b: CFU-GEMM” value (BM KSL cells [4]; 1000 ng/mL) was 6 (3×) and 8 and 9 and the “Supplementary Figure 3b: CFU-GM” value (BM KSL cells [4]; 1000 ng/mL) was 27 and 30 and 28 (2×) and 25. The “Supplementary Figure 3b: BFU-E” value (BM KSL cells [4]; 5 µg/mL) was 2 and 4 and 1 (3×) and 0, the “Supplementary Figure 3b: BFU-E” value (BM KSL cells [4]; 10 µg/mL) was 3 (2×) and 2 (2×) and 1 (2×) and the “Supplementary Figure 3b: CFU-GEMM” value (BM KSL cells [4]; 10 µg/mL) was 3 (3×) and 2 (2×) and 1. The “Supplementary Figure 3b: CFU-GM” value (BM KSL cells [4]; 10 µg/mL) was 14 (2×) and 17 and 16 and 15 and 12, the “number of BM CFCs in 3 day culture of BM KSL cells” value (BM KSL cells [4]; 10 – 100 ng/ml DJ001) was “significantly increased the number of BM CFCs” and the “numbers of CFCs vs control” value (BM KSL cells [4]; 3 day culture of non-irradiated BM KSL cells) was “significantly increased the numbers of colony forming cells (CFCs)”. The “Supplementary Figure 3b: CFU-GEMM” value (BM KSL cells [4]) was 3 (4×) and 6 and 4, the “Supplementary Figure 3b: CFU-GM” value (BM KSL cells [4]) was 22 and 21 and 23 and 20 and 19 and 18 and the “Supplementary Figure 3c (center left panel): blood counts” value (adult C57BL/6 mice; [6]) was 0.82 and 1.16 and 1.29 and 0.87 and 1.1 and 1.4 and 0.98. The “Supplementary Figure 3c (center right panel): blood counts” value (adult C57BL/6 mice; [6]) was 4.18 and 4.99 and 3.87 and 3.78 and 3.15 and 4.96 and 3.86, the “Supplementary Figure 3c (left panel): blood counts” value (adult C57BL/6 mice; [6]) was 5.14 and 6.28 and 5.54 and 5.44 and 4.5 and 5.46 and 7.08 and the “Supplementary Figure 3c (right panel): blood counts” value (adult C57BL/6 mice; [6]) was 982 and 1048 and 1026 and 1004 and 1184 and 1209 and 1110. The “Supplementary Figure 3d (center panel): BM HSC/progenitors” value (adult C57BL/6 mice; [6]) was 3.5181 and 6.1488 and 9.9568 and 8.316 and 4.0147 and 7.046 and 6.2794, the “Supplementary Figure 3d (left panel): BM HSC/progenitors” value (adult C57BL/6 mice; [6]) was 1.912 and 2.52 and 3.92 and 3.024 and 2.624 and 2.168 and 3.376 and the “Supplementary Figure 3d (right panel): BM HSC/progenitors” value (adult C57BL/6 mice; [6]) was 3.375 and 1.086 and 2.798 and 5.06 and 3.054 and 1.789 and 4.039. The “Supplementary Figure 3e: BFU-E” value (adult C57BL/6 mice; [7]) was 0, the “Supplementary Figure 3e: CFU-GEMM” value (adult C57BL/6 mice; [7]) was 0 (3×) and 1 (2×) and 2 and the “Supplementary Figure 3e: CFU-GM” value (adult C57BL/6 mice; [7]) was 10 and 7 and 8 and 6 (2×) and 9. The “complete blood counts, BM HSC or progenitor cell content, BM CFCs vs vehicle” value (adult C57BL/6 mice; non-irradiated mice, 5 mg/kg subcutaneously every other day for 30 days, 5 mg/kg) was “no significant changes; also recorded: caused no expansion of HSCs, progenitors, or mature blood counts”, the “in vitro migration of BM KSL cells through EC monolayers” value (BM KSL cells [5]; 1 µg/mL DJ001, 18 h) was “did not alter the in vitro migration” and the “number of cells within the lower chambers, per replicate (Supplementary Figure 8a)” value (BM KSL cells [5]; 1 µg/ml DJ001, 18 hours) was 17.5 and 8.74 and 19.1 and 21.8 and 10.9.
